In patent publication US20160128935A1, “METHOD OF TREATING AN ANIMAL” (priority 2012, published 2016):

Test system: bacterial infections
Test: Treatment of cichlids having bacterial infections by feeding injected live worms
Format: in vivo
Conditions: Emperor and Peacock Cichlids with bacterial infections; one injected live worm per fish for six days
Experimental: Emperor Cichlids and Peacock Cichlids (fish) having bacterial infections were treated using one live food creature (a live worm) per fish for six days. Each worm was injected with Antibiotic Metronidazole at a measurement of 5 ml in syringe and the worm was injected with as much of the 5 ml as the worm would hold. The injected worms were fed to the fish individually by placing the worm adjacent the fish and feeding was confirmed by observation. The fish ate the treated worms in all cases, showing a vigorous feeding instinct for the live worms. […] It is typical to lose some fish being treated for bacterial infections.

## Cc1ncc([N+](=O)[O-])n1CCO [Metronidazole]
  loss of treated fish: None of the fish so treated were lost
  recovery time (sufficiently recovered to be salable): sufficiently recovered to be salable within seven days
